One experiment has as its system C. albicans SC5314. The experiment is described as follows: Minimum fungicidal concentration assay, C. albicans. The class given is cell-based, Candida albicans. Conditions: Table 2B.
For experiment [1], the system named is MRSA BAA-1707 biofilms. In words: Calgary Biofilm Device assay (MBC/MBEC), MRSA BAA-1707. It counts as cell-based, Staphylococcus aureus. Here is the method:
(§1) The lid of the Calgary device was then removed, washed and transferred to another 96-well plate containing 2-fold serial dilutions of the test compounds (the “challenge plate”). The total volume of media with compound in each well in the challenge plate is 150 μL. […] The lid was then removed from the challenge plate and MBC/MBEC values were determined using different final assays. […] The MBC values were determined as the concentration giving a lack of visible bacterial growth (i.e., turbidity). […] In select experiments, pegs from the Calgary device were removed from lead biofilm eradicators after final incubation, sonicated for 30 minutes in PBS and plated out to determine biofilm cell killing of lead biofilm-eradicating agents (i.e., colony forming unit per milliliter, CFU/mL).
(§2) Using a Calgary Biofilm Device, bacterial biofilms are established on pegs suspended to the bottom of a 96-well plate lid. Following biofilm establishment on lid pegs, lids are then transferred to new 96-well plates containing serial dilutions of test compound and allowed to incubate. After compound treatment, 96-well plate lids with pegs are once again transferred to 96-well plates containing fresh media. During this final phase of the assay, viable biofilms will grow and disperse planktonic cells into the media where they will grow and give a turbid well result. Conversely, wells that have no growth are a result of pegs that had eradicated bacterial biofilms. The lowest concentration at which no turbidity is observed is the minimum biofilm eradication concentration (MBEC). Using the Calgary Biofilm Device, both minimum biofilm eradication concentrations and minimum bactericidal concentrations (MBC) for planktonic bacterial can be determined using one assay from a single bacterial culture (FIG. 3A).

In a further experiment the test system is MRSE ATCC 35984 biofilms. In words: Calgary Biofilm Device assay (MBC/MBEC), MRSE 35984. The class given is cell-based, Staphylococcus epidermidis. The procedure: as §1, §2
For experiment [2], the system named is MRSA BAA-1707 biofilms. In words: Live/Dead staining of MRSA biofilms. It counts as cell-based, Staphylococcus aureus. Here is the method:
A mid-log culture of MRSA BAA-1707 was diluted 1:1000-fold and 500 μL was transferred to each compartment of a four-compartment CELLview dish (Greiner Bio-One 627871). The dish was then incubated for 24 hours at 37° C. to establish MRSA-1707 biofilms. After this time, the cultures were removed and the plate was washed with 0.9% saline. The dish was then treated with test compounds in fresh media at various concentrations. DMSO was used as a negative control in this assay. The dish was incubated with the test compound for 24 hours at 37° C. After this time, the cultures were removed and the dish was washed with 0.9% saline for 2 minutes. Saline was then removed and 500 μL of the stain (Live/Dead BacLight Viability Kit, Invitrogen) were added for 15 minutes and left in the dark. After this time, the stain was removed and the dish was washed twice with 0.9% saline. Then the dish was fixed with 500 μL 4% paraformaldehyde in PBS for 30 minutes. Images of remaining MRSA biofilms were then taken with a fluorescence microscope.

The subject of experiment [3] is MRSA BAA-1707 stationary cultures. In words: MRSA persister cell kill kinetics (stationary cultures). Conditions: 50 μM; after 90 minutes. It counts as cell-based, Staphylococcus aureus. Here is the method: An overnight culture of MRSA BAA-1707 was diluted in fresh TSBG (1:13 to 1:20 fold) and allowed to grow with shaking. Once the culture reached stationary phase (4-6 hours), test compounds were added at a final test concentration of 50 μM. The cultures were incubated with shaking at 250 rpm and aliquots were removed and plated out at predetermined time points. Colony forming units (CFU) per milliliter data was recorded and plotted using Graphpad Prism 6.0.
The panel of membrane-active compounds was also evaluated head-to-head at 50 μM against MRSA BAA-1707 stationary cultures in kinetic killing experiments. Stationary cultures of S. aureus have elevated populations of metabolically dormant persister cells^36,37 and using this experiment, we could get multiple early time points to see if 1 and 2 were rapid killers of MRSA persister cells.
An overnight culture of MRSA BAA-1707 was diluted in fresh TSBG (1:13 to 1:20 fold) and allowed to grow with shaking. Once the culture reached stationary phase (4-6 hours), test compounds were added at a final test concentration of 50 μM. The cultures were incubated with shaking at 250 rpm and aliquots were removed and plated out at different time points. Colony forming units (CFU) per milliliter data was recorded and plotted using Graphpad Prism 6.0.

Where [4] appears, read: Table 2, CBD assay, planktonic cells.

Marks after values point to notes of the source that are not given here.

`CCCCCCCCCCCCCCCC[N+](C)(C)Cc1ccccc1.[Cl-]` [BAC-16, reference compound] returned a C. albicans SC5314 MBC with C. albicans SC5314 of 6.25 µM.
Regarding `CCCCCCCCCCCCCCCCn1cc[n+](C)c1C.[I-]` [Compound 8], in the experiment on MRSA BAA-1707 biofilms [1] (Table 2A, CBD assay), the “MRSA BAA-1707 MBC” value was 11.7^a/ μM and the “MRSA BAA-1707 MBEC” value came out at 31.3 µM. For the same molecule, in the experiment on MRSE ATCC 35984 biofilms (Table 2A, CBD assay), the “MRSE 35984 MBC” value is given as 3.0^a/ μM and the “MRSE 35984 MBEC” value is recorded as 3.0^a μM. Further, in the experiment on C. albicans SC5314, the C. albicans SC5314 MBC stood at 6.25 µM.
Taken in the same sequence, the figures for `CCCCCCCCCCCCCCCCn1cc[n+](CCO)c1C.[Br-]` [Compound 11] were 23.5^a/ μM, 46.9^a μM, 3.9/3.9 μM, 3.9/3.9 μM and 6.25 µM.
Consider `CCCCCCCCCCCCCCCCn1cc[n+](Cc2cccc(F)c2)c1C.[Br-]` [Compound 18], for which, in the experiment with MRSE ATCC 35984 biofilms (Table 2A, CBD assay), the “MRSE 35984 MBC” value is on record as 11.7^a/ μM and the “MRSE 35984 MBEC” value is recorded as 11.7^a μM.
For the molecule `CCCCCCCCCCCCCCCCn1cc(-c2ccccc2)[n+](C)n1.[I-]` [Compound 30], in the experiment on MRSA BAA-1707 biofilms [1] (Table 2A, CBD assay), the “MRSA BAA-1707 MBC” value is recorded as 11.7^a/ μM and the “MRSA BAA-1707 MBEC” value is on record as 23.5^a μM.
For the molecule `CCCCCCCCCCCCCCCCn1cc[n+](Cc2ccccc2)c1C` [NH125, 3-benzyl-1-hexadecyl-2-methyl-1H-imidazol-3-ium bromide, reference compound], in the experiment on MRSA BAA-1707 biofilms [1], the “minimum biofilm eradication concentration (MBEC), MRSA BAA-1707 biofilms” value stood at 46.9 µM. Moreover, the MBC in the experiment with MRSA BAA-1707 biofilms [1] (Staphylococcus aureus, Table 2, CBD assay, planktonic cells) was 23.5 µM; against MRSE ATCC 35984 biofilms (Staphylococcus epidermidis, Table 2, CBD assay, planktonic cells) it was 15.6 µM. In the experiment with MRSA BAA-1707 biofilms [1] (Table 2, CBD assay, biofilm), the “MRSA BAA-1707 MBEC” value was determined as 46.9 µM. For the same molecule, the “reduction of viable biofilm cells” value in the experiment with MRSA BAA-1707 biofilms [1] (at 62.5, colony counts of CBD pegs, MRSA BAA-1707) lay within 3 to 4 log. Moreover, the “MRSE 35984 MBEC” value in the experiment with MRSE ATCC 35984 biofilms (Table 2, CBD assay, biofilm) came out at 5.9 µM. In addition, the “clearance of MRSA biofilms (fluorescence images)” value with MRSA BAA-1707 biofilms [2] (FIG. 4, 24 hours after treatment) is on record as “potent clearance of MRSA biofilms”. For the same molecule, in the experiment on MRSA BAA-1707 biofilms [2] (at 31.3 μM), the “clearance of established biofilms (Live/Dead staining)” value is given as “effective clearance of established biofilms”. In addition, the “reduction of stationary MRSA cells” value in experiment [3] is listed as around 1 logs.
Take `CCCCCCCCCCCC[N+](C)(C)CC[N+](C)(C)CC[N+](C)(C)CCCCCCCCCCCC` [QAC-10, reference compound]: the “MRSA BAA-1707 MBEC” value in the experiment on MRSA BAA-1707 biofilms [1] (Table 2, CBD assay, biofilm) was 93.8^a/93.8^a μM; in the experiment with MRSA BAA-1707 biofilms [1] (Table 2A, CBD assay), 93.8^a μM. Also, the “MRSA BAA-1707 MBC” value is listed as 93.8^a/93.8^a μM in the experiment on MRSA BAA-1707 biofilms [1] (setting [4]) and 93.8^a/ μM in the experiment with MRSA BAA-1707 biofilms [1] (Table 2A, CBD assay). Moreover, the “MBEC, MRSE biofilms” value in the experiment with MRSE ATCC 35984 biofilms (MRSE ATCC 35984) stood at 31.3 µM. Also, the “MRSE 35984 MBEC” value with MRSE ATCC 35984 biofilms (Table 2, CBD assay, biofilm) was 31.3/31.3 μM; in the experiment with MRSE ATCC 35984 biofilms (Table 2A, CBD assay), 31.3 µM. In addition, the “MRSE 35984 MBC” value was 31.3/31.3 μM in the experiment on MRSE ATCC 35984 biofilms (setting [4]) and 31.3 µM⁻¹ in the experiment on MRSE ATCC 35984 biofilms (Table 2A, CBD assay).

The values above are taken from patent US11419335B2, “N-arylated analogues and uses thereof” (University of Florida Research Foundation, Incorporated, priority 2016, dated 2022).
